Six compounds from ChEMBL document CHEMBL1124292, “Synthesis and evaluation of neoplastic cell growth inhibition of 1-N-alkylamide analogues of glycero-3-phosphocholine” (1988) can be followed below.

SMILES strings stand for the structures. pIC50: −log10 of the molar value. Some results are limits rather than exact numbers.

The subject of this assay is HL-60. As to the kind of experiment: Inhibitory dose against HL60 human leukemic cells after incubation for 48 h. Format: functional. Particulars: HL-60, 48 h, read-out: ID50 (the source's name).
`CCCCCCCCCCCCCCCC(=O)NCC(COP(=O)([O-])OCC[N+](C)(C)C)OCC` (stereo unspecified): the pIC50 was 5.63.
For `CCCCCCCCCCCCCCCC(=O)NCC(COP(=O)([O-])OCC[N+](C)(C)C)OC` (stereo unspecified), the pIC50 is 5.48.
Regarding `CCCCCCCCCCCCCCCCCCOCC(COP(=O)([O-])OCC[N+](C)(C)C)OC` (racemic) [EDELFOSINE], the pIC50 is 5.61.
Take `CCCCCCCCCCCCCCCCCC(=O)NCC(COP(=O)([O-])OCC[N+](C)(C)C)OCC` (stereo unspecified): the pIC50 was 5.79.
In the case of `CCCCCCCCCCCCCCCCCC(=O)NCC(COP(=O)([O-])OCC[N+](C)(C)C)OC` (stereo unspecified), the pIC50 was 5.61.
On to `CCCCCCCCCCCCCCCC(=O)NCC(O)COP(=O)([O-])OCC[N+](C)(C)C` (stereo unspecified), for which the pIC50 was under 5.00.
